Patent US12168643B2, “Compounds for the treatment of neuromuscular disorders” (NMD PHARMA A/S, priority 2019, dated 2024)
Marks after values point to notes of the source that are not given here.

Assays:
[1] = tested on: isolated rat soleus muscles; test: Recovery of nerve-stimulated contractile force in isolated rat soleus nerve-muscle preparations exposed to tubocurarine; format: cell-based; settings: 50 μM compound, 40 mins exposure, after 90 mins 115 nM tubocurarine
Protocol: FIG. 2. […] Force traces from a representative muscle stimulated to contract in 1) control condition before addition of neuromuscular blocking agent, 2) the force response to stimulation after 90 minutes incubation with Tubocurarine. […] The traces presented in panel A (1, 2, 3), correspond to the dotted lines in panel B, respectively.
Recovery of force is quantified as the percentage of the force prior to tubocurarine that is recovered by the compound.
The current disclosure relates to compounds that inhibit CIC-1 ion channels and increase muscle excitability and thereby improve muscle function in clinical conditions where muscle activation is failing. Such conditions result in loss of contractile function of skeletal muscle, weakness and excessive fatigue. In this series of experiments the compounds were tested for their ability to restore contractile function of isolated rat muscle when the neuromuscular transmission had been compromised akin to neuromuscular disorders.
Experimentally, soleus muscles from 4-5 week old rats were isolated with the motor nerve remaining attached. The nerve-muscle preparations were mounted in experimental setups that enabled electrical stimulation of the motor nerve. Stimulation of the motor nerve led to activation of the muscle fibres and ensuing force production that was recorded.
After mounting the nerve-muscle preparation in the experimental setup, the contractile function of the muscle was initially assessed under the control conditions (FIG. 2A). […] The experimental condition mimics the failing neuromuscular transmission in a range of neuromuscular disorders. After addition of tubocurarine the contractile force declined over the next 90 mins to 10-50% of the control force. 50 μM of the test compound was then added and the contractile force recovered despite the continued presence of tubocurarine. To quantify the ability of the compound to restore force the percentage of the initial force that was restored was determined after 40 mins of compound exposure (FIG. 2B) and the point increase is reported in Table 3.

CIC-1 ion channel = biological target: T1, CIC-1 ion channel (Rattus norvegicus, UniProt P35524); test: Electrophysiological measurement (three micro-electrode Gm) of compound inhibition of CIC-1 in rat soleus muscle fibres; format: cell-based; settings: whole rat soleus muscle, approx. 30° C., four increasing concentrations; mean ± spread, n = experiments; read-out: EC50 (inhibition of CIC-1 ion channel, reduction of Gm)
T1 construct: from tissue; host or cells: whole soleus muscle of 12-14 week old Wistar rats
T1 sequence (P35524 1-994): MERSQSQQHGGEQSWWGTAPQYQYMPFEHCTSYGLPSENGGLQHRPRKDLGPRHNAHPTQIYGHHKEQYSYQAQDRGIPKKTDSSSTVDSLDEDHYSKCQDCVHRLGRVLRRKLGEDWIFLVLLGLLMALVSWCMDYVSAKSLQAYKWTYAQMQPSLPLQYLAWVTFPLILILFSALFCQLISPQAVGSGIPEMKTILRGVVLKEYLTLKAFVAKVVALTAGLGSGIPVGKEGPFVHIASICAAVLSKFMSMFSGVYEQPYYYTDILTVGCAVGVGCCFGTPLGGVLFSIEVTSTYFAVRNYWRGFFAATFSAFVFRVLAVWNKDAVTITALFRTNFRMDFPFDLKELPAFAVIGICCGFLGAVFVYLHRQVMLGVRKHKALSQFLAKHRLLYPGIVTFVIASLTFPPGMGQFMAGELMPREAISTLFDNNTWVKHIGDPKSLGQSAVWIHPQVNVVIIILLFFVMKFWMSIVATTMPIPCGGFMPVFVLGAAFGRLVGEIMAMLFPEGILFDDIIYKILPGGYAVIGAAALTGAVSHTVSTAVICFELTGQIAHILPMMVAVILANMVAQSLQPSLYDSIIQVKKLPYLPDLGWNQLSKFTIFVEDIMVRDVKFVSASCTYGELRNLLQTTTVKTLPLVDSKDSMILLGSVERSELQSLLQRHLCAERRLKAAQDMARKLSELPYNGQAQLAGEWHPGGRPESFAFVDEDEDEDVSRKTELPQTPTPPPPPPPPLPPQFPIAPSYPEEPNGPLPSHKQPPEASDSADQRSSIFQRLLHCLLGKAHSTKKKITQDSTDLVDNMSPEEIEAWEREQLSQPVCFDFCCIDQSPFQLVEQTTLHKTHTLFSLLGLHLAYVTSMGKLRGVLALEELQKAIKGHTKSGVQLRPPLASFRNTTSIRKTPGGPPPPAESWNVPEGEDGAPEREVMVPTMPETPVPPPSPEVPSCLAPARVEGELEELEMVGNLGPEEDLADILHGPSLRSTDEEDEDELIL

hindlimb muscle force = test: In situ isometric hindlimb force in anaesthetised rats with neuromuscular transmission partially inhibited by Cisatracurium; format: in vivo; settings: 47.2 mg/kg i.v., 80 Hz stimulation, Cisatracurium infusion, female Lewis rats
Protocol: Isometric hindlimb force was measured in 12-week old female Lewis rats in the presence and absence of compound.
Rats were placed under anesthesia with isoflurane (2-4%), intubated and subsequently connected to a micro ventilator (Microvent 1, Hallowell EMC, US). Two stimulation electrodes were inserted through the skin to stimulate the sciatic nerve. A small incision was made proximal to the ankle, to expose the Achilles tendon, which was tied by cotton string, and connected to a force transducer (Fort250, World Precision Instruments) with adjustable position (Vernier control). The Achilles tendon was then cut distal to the attached cotton string. […]
Muscle contractile properties were assessed by applying an electrical current (under supramaximal voltage conditions) to the nerve and recording the force generated by the muscle. The muscle was stretched until maximal force was obtained, when assessed by 2 Hz stimulation. Isometric force was measured every 30 seconds at 12 Hz (Twitch), 10 pulses, and at every 5 minutes at 80 Hz (Tetanic) for 1 second (80 pulses). […] The effect of test article was assessed on its ability to increase force generated from the stimulation pattern applied. The effect was assessed in the ability to increase force per se (tetanic, 80 Hz, stimulation), and the ratio between individual twitch peaks (12 Hz stimulation). […]

EC50 (CIC-1 ion channel) [µM] | SMILES | Point increase (%) of initial force that was restored [1] | increase in tetanic force (hindlimb muscle force) [%]
 | COC[C@@H](Oc1ccc(Br)cc1C1CC1)C(=O)O (single isomer, unassigned) [(2R)-A-1] | 0.2% | 
 | COC[C@@H](Oc1ccc(Br)cc1C1CCC1)C(=O)[O-].[Na+] [(2R)-A-6, Sodium (R)-2-(4-bromo-2-cyclobutylphenoxy)-3-methoxypropanoate] | −4.1 ± 1.4% | 
3.7 ± 0.2 | COC[C@H](Oc1ccc(Br)cc1C1CC1)C(=O)O [Compound A-1, (2S)-2-(4-Bromo-2-cyclopropylphenoxy)-3-methoxypropanoic acid] | 36.3* % | 85
 | COC[C@H](Oc1cc(F)c(Br)cc1C1CC1)C(=O)O [Compound A-2, (2S)-2-(4-bromo-2-cyclopropyl-5-fluorophenoxy)-3-methoxypropanoic acid] | 22.3 ± 3.8% | 
3.2 ± 2.1 | COC[C@H](Oc1ccc(Br)cc1C1CCC1)C(=O)O [Compound A-6, (2S)-2-(4-bromo-2-cyclobutylphenoxy)-3-methoxypropanoic acid] | 35.6 ± 8.3% | 
